Laboratory results published in the kinase profiling compilation of Christmann-Franck et al. (2016).

Columns and labels:
Assay in all cases: KINOMEscan competition binding
Details in all cases: compound 2.0 µM
MAP2K5 (human) = MAP2K5 (human) (UniProt Q13163)
DAPK1 (human) = DAPK1 (human) (UniProt P53355)
NLK (human) = NLK (human) (UniProt Q9UBE8)
CDK5 (human) = CDK5 (human) (UniProt Q00535)
IKBKB (human) = IKBKB (human) (UniProt O14920)
CAMK4 (human) = CAMK4 (human) (UniProt Q16566)
PRKACB (human) = PRKACB (human) (UniProt P22694)
NEK3 (human) = NEK3 (human) (UniProt P51956)
MAPK6 (human) = MAPK6 (human) (UniProt Q16659)
CLK3 (human) = CLK3 (human) (UniProt P49761)
[1] = system: EGFR (human), P00533 [T790M/L858R]
LATS2 (human) = LATS2 (human) (UniProt Q9NRM7)
Chain of LATS2 (human) (Q9NRM7 whole entry, looked up): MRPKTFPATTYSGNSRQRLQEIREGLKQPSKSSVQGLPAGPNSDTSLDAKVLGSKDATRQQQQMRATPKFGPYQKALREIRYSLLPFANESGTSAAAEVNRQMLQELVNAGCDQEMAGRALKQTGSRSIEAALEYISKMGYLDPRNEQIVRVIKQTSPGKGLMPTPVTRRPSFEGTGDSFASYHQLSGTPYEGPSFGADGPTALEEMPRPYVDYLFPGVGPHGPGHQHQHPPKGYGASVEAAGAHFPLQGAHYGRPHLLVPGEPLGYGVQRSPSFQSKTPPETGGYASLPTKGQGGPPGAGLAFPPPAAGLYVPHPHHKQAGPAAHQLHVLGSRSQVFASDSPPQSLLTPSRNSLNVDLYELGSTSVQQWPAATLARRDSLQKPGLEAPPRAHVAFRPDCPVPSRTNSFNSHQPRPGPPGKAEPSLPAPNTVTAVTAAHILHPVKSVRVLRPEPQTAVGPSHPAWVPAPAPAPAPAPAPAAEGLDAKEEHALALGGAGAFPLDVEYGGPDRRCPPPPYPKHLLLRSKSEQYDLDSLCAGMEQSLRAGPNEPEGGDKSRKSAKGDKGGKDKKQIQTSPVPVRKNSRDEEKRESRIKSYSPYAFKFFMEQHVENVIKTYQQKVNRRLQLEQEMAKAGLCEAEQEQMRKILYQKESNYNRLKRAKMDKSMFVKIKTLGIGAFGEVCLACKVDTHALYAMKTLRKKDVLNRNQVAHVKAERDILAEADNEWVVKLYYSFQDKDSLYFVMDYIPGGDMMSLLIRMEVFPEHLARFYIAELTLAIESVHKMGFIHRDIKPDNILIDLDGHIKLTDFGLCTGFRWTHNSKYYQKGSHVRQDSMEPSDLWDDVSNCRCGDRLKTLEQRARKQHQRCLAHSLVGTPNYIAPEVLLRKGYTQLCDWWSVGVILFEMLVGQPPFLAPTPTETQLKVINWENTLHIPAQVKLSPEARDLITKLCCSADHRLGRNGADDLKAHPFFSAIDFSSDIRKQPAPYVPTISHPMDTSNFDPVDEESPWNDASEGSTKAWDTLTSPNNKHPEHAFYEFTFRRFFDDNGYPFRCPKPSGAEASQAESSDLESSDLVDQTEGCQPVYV

LRRK2 (human) = LRRK2 (human) (UniProt Q5S007)
IRAK1 (human) = IRAK1 (human) (UniProt P51617)
GRK4 (human) = GRK4 (human) (UniProt P32298)
PRKCQ (human) = PRKCQ (human) (UniProt Q04759)
GRK1 (human) = GRK1 (human) (UniProt Q15835)
[2] = system: ABL1 (human), P00519 [M351T]
MYO3A (human) = MYO3A (human) (UniProt Q8NEV4)
CAMK1D (human) = CAMK1D (human) (UniProt Q8IU85)
PRKCH (human) = PRKCH (human) (UniProt P24723)
RIPK4 (human) = RIPK4 (human) (UniProt P57078)
INSRR (human) = INSRR (human) (UniProt P14616)
FGFR4 (human) = FGFR4 (human) (UniProt P22455)
MLTK (human) = MLTK (human) (UniProt Q9NYL2)
PRKCD (human) = PRKCD (human) (UniProt Q05655)
AXL (human) = AXL (human) (UniProt P30530)
[3] = system: KIT (human), P10721 [D816V]
MAP3K6 (human) = MAP3K6 (human) (UniProt O95382)
SIK2 (human) = SIK2 (human) (UniProt Q9H0K1)
Chain of SIK2 (human) (Q9H0K1 whole entry, looked up): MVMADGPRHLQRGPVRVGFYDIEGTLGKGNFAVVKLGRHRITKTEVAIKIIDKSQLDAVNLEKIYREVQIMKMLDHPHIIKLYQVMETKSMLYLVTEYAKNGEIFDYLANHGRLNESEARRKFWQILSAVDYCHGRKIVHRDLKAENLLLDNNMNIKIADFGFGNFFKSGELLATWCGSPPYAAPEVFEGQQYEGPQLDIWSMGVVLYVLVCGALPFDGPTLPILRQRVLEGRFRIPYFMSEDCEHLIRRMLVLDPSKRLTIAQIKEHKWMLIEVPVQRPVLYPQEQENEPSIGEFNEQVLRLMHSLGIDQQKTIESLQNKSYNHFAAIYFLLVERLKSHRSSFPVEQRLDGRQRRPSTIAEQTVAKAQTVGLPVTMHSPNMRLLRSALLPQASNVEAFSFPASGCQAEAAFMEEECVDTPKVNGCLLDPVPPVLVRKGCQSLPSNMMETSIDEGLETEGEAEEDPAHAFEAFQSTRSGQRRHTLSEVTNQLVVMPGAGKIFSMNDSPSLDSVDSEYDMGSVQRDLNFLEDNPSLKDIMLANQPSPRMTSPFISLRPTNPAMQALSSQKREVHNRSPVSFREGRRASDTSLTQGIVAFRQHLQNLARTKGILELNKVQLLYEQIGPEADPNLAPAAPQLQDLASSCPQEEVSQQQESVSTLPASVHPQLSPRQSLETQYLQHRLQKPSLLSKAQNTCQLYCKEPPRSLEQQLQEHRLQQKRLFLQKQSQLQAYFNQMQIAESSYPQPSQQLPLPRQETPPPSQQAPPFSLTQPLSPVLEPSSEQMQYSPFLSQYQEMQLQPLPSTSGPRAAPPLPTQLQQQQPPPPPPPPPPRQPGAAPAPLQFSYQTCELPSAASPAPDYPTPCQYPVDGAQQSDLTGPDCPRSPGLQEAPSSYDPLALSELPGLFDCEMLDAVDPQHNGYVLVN

MINK1 (human) = MINK1 (human) (UniProt Q8N4C8)
TNK2 (human) = TNK2 (human) (UniProt Q07912)
MAPK7 (human) = MAPK7 (human) (UniProt Q13164)
TAOK3 (human) = TAOK3 (human) (UniProt Q9H2K8)
Chain of TAOK3 (human) (Q9H2K8 whole entry, looked up): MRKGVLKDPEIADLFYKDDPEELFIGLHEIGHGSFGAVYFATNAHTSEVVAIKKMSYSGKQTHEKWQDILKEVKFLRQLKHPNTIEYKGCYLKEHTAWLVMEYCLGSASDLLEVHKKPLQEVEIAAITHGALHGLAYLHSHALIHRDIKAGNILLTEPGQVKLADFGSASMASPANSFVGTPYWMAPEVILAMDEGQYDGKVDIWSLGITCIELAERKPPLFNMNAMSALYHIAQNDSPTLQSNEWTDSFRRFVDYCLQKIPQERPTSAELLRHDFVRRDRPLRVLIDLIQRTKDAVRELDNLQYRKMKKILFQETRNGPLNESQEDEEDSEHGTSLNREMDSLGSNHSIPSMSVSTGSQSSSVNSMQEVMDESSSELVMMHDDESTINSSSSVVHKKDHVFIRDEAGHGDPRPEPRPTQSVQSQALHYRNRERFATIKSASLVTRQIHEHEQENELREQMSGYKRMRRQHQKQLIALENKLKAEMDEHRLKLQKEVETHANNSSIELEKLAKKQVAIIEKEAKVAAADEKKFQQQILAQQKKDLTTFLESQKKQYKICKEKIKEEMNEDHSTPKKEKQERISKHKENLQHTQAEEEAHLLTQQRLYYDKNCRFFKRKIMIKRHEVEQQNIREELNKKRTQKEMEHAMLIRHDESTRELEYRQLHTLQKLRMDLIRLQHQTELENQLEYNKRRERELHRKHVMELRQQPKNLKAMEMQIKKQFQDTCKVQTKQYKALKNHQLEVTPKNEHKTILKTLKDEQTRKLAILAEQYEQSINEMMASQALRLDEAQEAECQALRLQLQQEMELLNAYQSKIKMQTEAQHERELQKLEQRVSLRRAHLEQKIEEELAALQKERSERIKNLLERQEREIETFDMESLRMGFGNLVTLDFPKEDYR

DSTYK (human) = DSTYK (human) (UniProt Q6XUX3)
SRPK2 (human) = SRPK2 (human) (UniProt P78362)
Chain of SRPK2 (human) (P78362 whole entry, looked up): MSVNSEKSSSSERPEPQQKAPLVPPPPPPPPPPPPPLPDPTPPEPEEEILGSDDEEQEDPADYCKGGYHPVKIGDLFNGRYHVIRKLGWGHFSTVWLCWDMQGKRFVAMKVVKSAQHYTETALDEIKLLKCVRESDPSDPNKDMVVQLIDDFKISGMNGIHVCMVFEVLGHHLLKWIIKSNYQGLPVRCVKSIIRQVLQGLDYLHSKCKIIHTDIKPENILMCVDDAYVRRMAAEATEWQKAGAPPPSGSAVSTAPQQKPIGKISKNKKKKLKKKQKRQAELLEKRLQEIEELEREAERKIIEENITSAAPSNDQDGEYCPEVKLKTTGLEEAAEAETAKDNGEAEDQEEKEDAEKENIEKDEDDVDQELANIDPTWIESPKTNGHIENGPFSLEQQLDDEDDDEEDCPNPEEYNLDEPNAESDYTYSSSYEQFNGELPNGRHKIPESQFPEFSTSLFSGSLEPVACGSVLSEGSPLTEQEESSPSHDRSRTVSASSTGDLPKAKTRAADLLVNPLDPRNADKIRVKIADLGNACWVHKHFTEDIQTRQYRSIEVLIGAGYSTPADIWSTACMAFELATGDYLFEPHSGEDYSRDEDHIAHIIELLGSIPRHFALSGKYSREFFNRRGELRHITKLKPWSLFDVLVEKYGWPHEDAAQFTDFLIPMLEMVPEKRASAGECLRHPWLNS

TYRO3 (human) = TYRO3 (human) (UniProt Q06418)
HIPK2 (human) = HIPK2 (human) (UniProt Q9H2X6)
LCK (human) = LCK (human) (UniProt P06239)
[4] = system: FLT3 (human), P36888 [D835H]
ADCK3 (human) = ADCK3 (human) (UniProt Q8NI60)
CSK (human) = CSK (human) (UniProt P41240)
Chain of CSK (human) (P41240 whole entry, looked up): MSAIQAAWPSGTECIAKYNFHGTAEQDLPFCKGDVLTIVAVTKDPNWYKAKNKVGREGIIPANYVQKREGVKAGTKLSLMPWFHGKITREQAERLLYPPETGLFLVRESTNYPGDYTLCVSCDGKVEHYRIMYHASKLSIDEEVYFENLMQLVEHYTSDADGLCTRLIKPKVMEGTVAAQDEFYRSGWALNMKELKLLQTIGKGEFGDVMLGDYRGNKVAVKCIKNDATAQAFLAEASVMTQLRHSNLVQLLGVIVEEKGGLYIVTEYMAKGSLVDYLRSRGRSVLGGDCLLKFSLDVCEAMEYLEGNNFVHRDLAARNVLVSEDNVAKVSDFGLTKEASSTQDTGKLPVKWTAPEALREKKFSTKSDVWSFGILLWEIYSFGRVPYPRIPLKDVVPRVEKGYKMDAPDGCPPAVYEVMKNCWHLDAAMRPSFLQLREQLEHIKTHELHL

CSNK1G2 (human) = CSNK1G2 (human) (UniProt P78368)
Chain of CSNK1G2 (human) (P78368 whole entry, looked up): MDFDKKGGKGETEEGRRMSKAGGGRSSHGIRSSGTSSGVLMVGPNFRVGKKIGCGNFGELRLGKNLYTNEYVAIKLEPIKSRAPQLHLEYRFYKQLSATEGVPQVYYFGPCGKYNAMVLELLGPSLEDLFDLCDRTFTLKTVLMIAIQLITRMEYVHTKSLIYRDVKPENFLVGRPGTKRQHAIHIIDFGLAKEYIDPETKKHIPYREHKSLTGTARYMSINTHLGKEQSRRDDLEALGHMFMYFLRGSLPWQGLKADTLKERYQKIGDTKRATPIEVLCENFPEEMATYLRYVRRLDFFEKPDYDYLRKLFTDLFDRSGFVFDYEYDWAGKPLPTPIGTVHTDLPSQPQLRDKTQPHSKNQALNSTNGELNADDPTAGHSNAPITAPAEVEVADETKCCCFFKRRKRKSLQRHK

Measured: kinase still bound, per cent of control

Chain of CAMK4 (human) (Q16566 whole entry, looked up): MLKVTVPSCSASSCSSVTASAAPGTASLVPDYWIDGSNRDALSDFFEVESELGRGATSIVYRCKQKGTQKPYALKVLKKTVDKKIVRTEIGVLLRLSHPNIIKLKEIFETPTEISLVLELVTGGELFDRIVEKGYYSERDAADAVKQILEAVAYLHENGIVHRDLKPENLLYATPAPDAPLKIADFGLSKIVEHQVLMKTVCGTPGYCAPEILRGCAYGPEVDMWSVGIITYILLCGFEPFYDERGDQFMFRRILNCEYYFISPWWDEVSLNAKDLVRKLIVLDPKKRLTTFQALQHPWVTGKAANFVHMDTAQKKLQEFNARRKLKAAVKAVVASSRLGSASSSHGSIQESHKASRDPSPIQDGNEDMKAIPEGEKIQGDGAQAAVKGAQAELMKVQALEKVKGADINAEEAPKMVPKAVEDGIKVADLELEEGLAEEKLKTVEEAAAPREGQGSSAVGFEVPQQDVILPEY

N#Cc1ccc2ncnc(NCCc3ccc4ccccc4c3)c2c1
88%: AXL (human)
91%: MAPK6 (human) | PRKCD (human)
79%: TAOK3 (human)
85%: MAP2K5 (human) | NLK (human) | LRRK2 (human) | [3]
97%: INSRR (human) | TNK2 (human)
98%: IRAK1 (human) | [4]
93%: CLK3 (human) | MAPK7 (human)
61%: DSTYK (human)
89%: DAPK1 (human) | GRK4 (human)
87%: TYRO3 (human) | HIPK2 (human) | CSNK1G2 (human)
84%: LCK (human)
100%: all other assays above
